Test results reported in US9556228B2 (Universitaet Leipzig, priority 2011, dated 2017).
In brackets after ≈: the same amount, converted by molar mass. Peptide text beside a SMILES is read from it.

Key:
[1] = test system: Pseudomonas aeruginosa DSM 9644; type: cell-based
Method: (§1) The minimum inhibitory concentrations (MIC) of the peptides were determined in a double assay of triplicates using a positive control sample (gentamycin) and a negative control sample (0.9% NaCl solution), according to a modified protocol from Wiegand et al. (Wiegand, 2008).
[…] Overnight cultures were adjusted using ⅛ MHB to approximately 1.5×10^7 colony forming units per mL. Of these, 50 μL of peptide solution per well was mixed with 50 μL bacteria solution each to obtain an initial concentration of […] bacteria per well. After 20 hours of incubation at 37′C, the absorption was determined at 595 nm (microplate reader, Wallac Victor3, Perkin Elmer). The minimum inhibitory concentration was identified as the lowest peptide concentration at which no bacterial growth could be detected.
(§2) In the experiment, the antibacterial activity of the peptides according to the invention in relation to the following bacterial strains was analyzed: Pseudomonas aeruginosa PAO1 (wt strain), Pseudomonas aeruginosa DSM 9644, Staphylococcus aureus DSM 1104/ATCC 25923, Staphylococcus aureus ATCC 6247, Escherichia coli UB 1005 (F—, nalA37, metB1) and Escherichia coli ATCC25922.

Escherichia coli UB 1005 = test: Minimum inhibitory concentration (MIC), broth microdilution; type: cell-based; conditions: for MIC E. coli UB1005: 1/8 MHB, Table 4; for Improvement over Native Sequence (SEQ No. 2) E. coli UB1005: fold, from MIC in 1/8 MHB
Method: as §1
(§3) For this purpose, the peptides were dissolved in water and were diluted in a double dilution series with 1/8 MH (eight-fold diluted Mueller-Hinton-Medium—2.6 g/L, Merck) in sterile 96-well, plates (Greiner Bio-One GmbH) in twelve dilution steps from 128 μg/mL to 62.5 ng/mL. Overnight cultures were adjusted using ⅛ MHB to approximately 1.5×10^7 colony forming units per mL. Of these, 50 μL of peptide solution per well was mixed with 50 μL bacteria solution each to obtain an initial concentration of […] bacteria per well. After 20 hours of incubation at 37′C, the absorption was determined at 595 nm (microplate reader, Wallac Victor3, Perkin Elmer). The minimum inhibitory concentration was identified as the lowest peptide concentration at which no bacterial growth could be detected.
as §2

[2] = test system: Escherichia coli ATCC25922; type: cell-based
S. aureus DSM 6247 = type: cell-based, Staphylococcus aureus
Method: as §1, §3, §2

[3] = test system: Staphylococcus aureus DSM 1104/ATCC 25923; type: cell-based; conditions: for MIC S. aureus ATCC 25923 / MIC S. aureus DSM 1104/ATCC 25923: DSM 1104; for Improvement over Native Sequence (SEQ No. 2) S. aureus ATCC 25923: fold, from MIC in 1/8 MHB
Method: as §1, §3, §2

[4] = test system: Pseudomonas aeruginosa PAO1 (wt strain); type: cell-based; conditions: for Improvement over Native Sequence (SEQ No. 2) P. aeruginosa PAO1 wt: fold, from MIC in 1/8 MHB
Method: as §1, §3, §2

SMILES | MIC P. aeruginosa PAO DSM 9644 [1] [µg/mL] | MIC E. coli UB1005 (Escherichia coli UB 1005) [µg/mL] | Improvement over Native Sequence (SEQ No. 2) E. coli UB1005 (Escherichia coli UB 1005) | MIC E. coli ATCC 25922 [2] [µg/mL] | MIC S. aureus DSM 6247 (S. aureus DSM 6247) [µg/mL] | MIC S. aureus ATCC 25923 [3] [µg/mL] | MIC S. aureus DSM 1104/ATCC 25923 [3] [µg/mL] | Improvement over Native Sequence (SEQ No. 2) S. aureus ATCC 25923 [3] | MIC P. aeruginosa PAO1 wt [4] [µg/mL] | Improvement over Native Sequence (SEQ No. 2) P. aeruginosa PAO1 wt [4]
CC[C@H](C)[C@H](NC(=O)[C@H](Cc1ccc(O)cc1)NC(=O)[C@@H](NC(=O)[C@@H]1CCCN1C(=O)[C@H](CCCNC(=N)N)NC(=O)[C@H](CC(N)=O)NC(=O)[C@H](CC(N)=O)NC(=O)CN)C(C)C)C(=O)N1CCC[C@H]1C(=O)N[C@@H](CCC(N)=O)C(=O)N1CCC[C@H]1C(=O)N[C@@H](CCCNC(=N)N)C(=O)N1CCC[C@H]1C(=O)N1CCC[C@H]1C(=O)N[C@@H](Cc1c[nH]cn1)C(=O)N1CCC[C@H]1C(=O)N[C@@H](CCCNC(=N)N)C(=O)N[C@@H](CC(C)C)C(=O)O [compound 2] (H-GNNRPVYIPQPRPPHPRL-OH; N-terminus assumed) | >256 | 5 (≈ 2.37 µM) | 1 | 2 (≈ 0.949 µM) | 256 (≈ 121 µM) | >125 | >125 | 1 | 500 (≈ 237 µM) | 1
CC[C@H](C)[C@H](NC(=O)[C@H](Cc1ccc(O)cc1)NC(=O)[C@@H](NC(=O)[C@@H]1CCCN1C(=O)[C@H](CCCNC(=N)N)NC(=O)[C@H](CC(N)=O)NC(=O)[C@H](Cc1c[nH]c2ccccc12)NC(=O)CN)C(C)C)C(=O)N1CCC[C@H]1C(=O)N[C@@H](CCCNC(=N)N)C(=O)N1CCC[C@H]1C(=O)N[C@@H](CCCNC(=N)N)C(=O)N[C@@H](CCCNC(=N)N)C(=O)N1CCC[C@H]1C(=O)N[C@@H](Cc1c[nH]cn1)C(=O)N1CCC[C@H]1C(=O)N[C@@H](CCCNC(=N)N)C(=O)N[C@@H](CC(C)C)C(N)=O [compound 50] (H-GWNRPVYIPRPRRPHPRL-NH2; N-terminus assumed) | 32 (≈ 14.1 µM) | 2.5 (≈ 1.1 µM) | 2 | 8 (≈ 3.53 µM) | 2 (≈ 0.882 µM) | 2 (≈ 0.882 µM) | 2 (≈ 0.882 µM) | 128 | 32 (≈ 14.1 µM) | 16
CC[C@H](C)[C@H](NC(=O)[C@H](Cc1ccc(O)cc1)NC(=O)[C@@H](NC(=O)[C@@H]1CCCN1C(=O)[C@H](CCCNC(=N)N)NC(=O)[C@H](CC(N)=O)NC(=O)[C@H](Cc1c[nH]c2ccccc12)NC(=O)CN)C(C)C)C(=O)N1CCC[C@H]1C(=O)N[C@@H](CCC(N)=O)C(=O)N1CCC[C@H]1C(=O)N[C@@H](CCCNC(=N)N)C(=O)N[C@@H](CCCNC(=N)N)C(=O)N1CCC[C@H]1C(=O)N[C@@H](Cc1c[nH]cn1)C(=O)N1CCC[C@H]1C(=O)N[C@@H](CCCNC(=N)N)C(=O)N[C@@H](CC(C)C)C(N)=O [compound 52] (H-GWNRPVYIPQPRRPHPRL-NH2; N-terminus assumed) | 64 (≈ 28.6 µM) | 5 (≈ 2.23 µM) | 1 | 16 (≈ 7.15 µM) | 2 (≈ 0.893 µM) | 4 to 8 | 4 to 8 | 31-64 | 64 (≈ 28.6 µM) | 8
CC[C@H](C)[C@H](NC(=O)[C@H](Cc1ccc(O)cc1)NC(=O)[C@@H](NC(=O)[C@@H]1CCCN1C(=O)[C@H](CCCNC(=N)N)NC(=O)[C@H](CC(N)=O)NC(=O)[C@H](CC(N)=O)NC(=O)CN)C(C)C)C(=O)N1CCC[C@H]1C(=O)N[C@@H](CCC(N)=O)C(=O)N1CCC[C@H]1C(=O)N[C@@H](CCCNC(=N)N)C(=O)N1CCC[C@H]1C(=O)N1CCC[C@H]1C(=O)N[C@@H](Cc1c[nH]cn1)C(=O)N1CCC[C@H]1C(=O)N[C@@H](CCCNC(=N)N)C(=O)N[C@@H](CCCNC(=N)N)C(N)=O [compound 62] (H-GNNRPVYIPQPRPPHPRR-NH2; N-terminus assumed) | – | 1.25 to 2.5 | 2-4 | – | – | 125 (≈ 58.1 µM) | – | 2 | 125 (≈ 58.1 µM) | 4
